Source: patent publication US7803815B2, “Indol-3-yl-corbonyl-piperidin-benzoimidazol derivatives” (Hoffmann-La Roche Inc., priority 2005, dated 2010)

Biological target: T1, human V1a receptor (Homo sapiens, UniProt P37288)
T1 construct: expressed in transfected cells; host or cells: HEK293 cells, transiently transfected; membrane preparation
Assay: human V1a receptor binding, 3H-Vasopressin SPA on membranes of transfected HEK293 cells
Conditions: displacement of 4 nM 3H-Vasopressin; HEK293 cell membranes; 1 h at room temperature; Ki from IC50 by the Cheng-Prussoff equation
Description: The human V1a receptor was cloned by RT-PCR from total human liver RNA. The coding sequence was subcloned in an expression vector after sequencing to confirm the identity of the amplified sequence. […] Cell membranes were prepared from HEK293 cells transiently transfected with the expression vector and grown in 20 liter fermenters with the following protocol.
50 g of cells are resuspended in 30 ml freshly prepared ice cold Lysis buffer (50 mM HEPES, 1 mM EDTA, 10 mM MgCl2 adjusted to pH=7.4+ complete cocktail of protease inhibitor (Roche Diagnostics)). Homogenized with Polytron for 1 min and sonicated on ice for 2×2 minutes at 80% intensity (Vibracell sonicator). The preparation is centrifuged 20 min at 500 g at 4° C., the pellet is discarded, and the supernatant centrifuged 1 hour at 43,000 g at 4° C. (19,000 rpm). The pellet is resuspended in 12.5 ml Lysis buffer+12.5 ml Sucrose 20% and homogenized using a Polytron for 1-2 min. The protein concentration is determined by the Bradford method, and aliquots are stored at −80° C. until use. For binding studies 60 mg Yttrium silicate SPA beads (Amersham) are mixed with an aliquot of membrane in binding buffer (50 mM Tris, 120 mM NaCl, 5 mM, KCl, 2 mM CaCl2, 10 mM MgCl2) for 15 minutes with mixing. 50 ul of bead/membrane mixture is then added to each well of a 96 well plate, followed by 50 ul of 4 nM 3H-Vasopressin (American Radiolabeled Chemicals). For total binding measurement, 100 ul of binding buffer are added to the respective wells, for non-specific binding 100 ul of […] cold vasopressin and for compound testing 100 ul of a serial dilution of each compound in 2% DMSO. The plate is incubated 1 h at room temperature, centrifuged 1 min at 1000 g and counted on a Packard Top-Count. Non-specific binding counts are subtracted from each well, and data is normalized to the maximum specific binding set at 100%. To calculate an IC 50, the curve is fitted using a non-linear regression model (XLfit), and the Ki is calculated using the Cheng-Prussoff equation.

T1 sequence (P37288 whole entry): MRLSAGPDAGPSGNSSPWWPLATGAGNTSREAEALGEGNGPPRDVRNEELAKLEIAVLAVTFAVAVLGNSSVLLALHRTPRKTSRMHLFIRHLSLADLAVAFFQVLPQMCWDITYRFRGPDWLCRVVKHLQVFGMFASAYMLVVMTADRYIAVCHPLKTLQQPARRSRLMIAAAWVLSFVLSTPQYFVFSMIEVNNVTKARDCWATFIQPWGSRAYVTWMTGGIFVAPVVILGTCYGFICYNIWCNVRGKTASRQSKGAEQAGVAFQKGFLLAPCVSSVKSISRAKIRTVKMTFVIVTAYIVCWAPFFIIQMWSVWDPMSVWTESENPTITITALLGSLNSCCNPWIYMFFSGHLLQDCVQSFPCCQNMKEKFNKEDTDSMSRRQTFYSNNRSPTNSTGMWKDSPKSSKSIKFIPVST

Structure (SMILES) | Ki [nM]
Cc1c(C(=O)N2CCC(n3c(Cl)nc4ccccc43)CC2)c2ccccc2n1Cc1ccccc1 [Example 1, (1-Benzyl-2-methyl-1H-indol-3-yl)-[4-(2-chloro-benzoimidazol-1-yl)-piperidin-1-yl]-methanone] | 45
O=C(c1cn(Cc2ccccc2)c2cc(Cl)ccc12)N1CCC(n2c(=O)[nH]c3ccccc32)CC1 [Example 24, 1-[1-(1-Benzyl-6-chloro-1H-indole-3-carbonyl)-piperidin-4-yl]-1,3-dihydro-benzoimidazol-2-one] | 2
Cc1oc(-c2ccccc2)nc1C(=O)Cn1cc(C(=O)N2CCC(n3c(=O)[nH]c4ccccc43)CC2)c2ccc(Cl)cc21 [Example 45, 1-(1-{6-Chloro-1-[2-(5-methyl-2-phenyl-oxazol-4-yl)-2-oxo-ethyl]-1H-indole-3-carbonyl}-piperidin-4-yl)-1,3-dihydro-benzoimidazol-2-one] | 43
Cc1c(C(=O)N2CCC(n3c(N4CCOCC4)nc4ccccc43)CC2)c2ccccc2n1Cc1ccccc1 [Example 3, (1-Benzyl-2-methyl-1H-indol-3-yl)-[4-(2-morpholin-4-yl-benzoimidazol-1-yl)-piperidin-1-yl]-methanone] | 18
Cc1c(C(=O)N2CCC(n3c(=O)n(CCN(C)C)c4ccccc43)CC2)c2ccccc2n1Cc1ccccc1 [Example 20, 1-[1-(1-Benzyl-2-methyl-1H-indole-3-carbonyl)-piperidin-4-yl]-3-(2-dimethylamino-ethyl)-1,3-dihydro-benzoimidazol-2-one] | 5
O=C(c1cn(CC2CCCCC2)c2ccccc12)N1CCC(n2c(=O)[nH]c3ccccc32)CC1 [Example 25, 1-[1-(1-Cyclohexylmethyl-1H-indole-3-carbonyl)-piperidin-4-yl]-1,3-dihydro-benzoimidazol-2-one] | 20
CC(C)n1cc(C(=O)N2CCC(n3c(=O)[nH]c4ccccc43)CC2)c2ccc(F)cc21 [Example 12, 1-[1-(6-Fluoro-1-isopropyl-1H-indole-3-carbonyl)-piperidin-4-yl]-1,3-dihydro-benzoimidazol-2-one] | 13
O=C(Cn1cc(C(=O)N2CCC(n3c(=O)[nH]c4ccccc43)CC2)c2ccc(Cl)cc21)c1cc(F)cc(F)c1 [Example 44, 1-(1-{6-Chloro-1-[2-(3,5-difluoro-phenyl)-2-oxo-ethyl]-1H-indole-3-carbonyl}-piperidin-4-yl)-1,3-dihydro-benzoimidazol-2-one] | 17
O=C(c1cn(Cc2cccc(F)c2)c2cc(Cl)ccc12)N1CCC(n2c(=O)[nH]c3ccccc32)CC1 [Example 34, 1-{1-[6-Chloro-1-(3-fluoro-benzyl)-1H-indole-3-carbonyl]-piperidin-4-yl}-1,3-dihydro-benzoimidazol-2-one] | 9
N#CCn1cc(C(=O)N2CCC(n3c(=O)[nH]c4ccccc43)CC2)c2ccc(Cl)cc21 [Example 21, {6-Chloro-3-[4-(2-oxo-2,3-dihydro-benzoimidazol-1-yl)-piperidine-1-carbonyl]-indol-1-yl}-acetonitrile] | 6
O=C(c1cn(Cc2cc(F)cc(F)c2)c2cc(Cl)ccc12)N1CCC(n2c(=O)[nH]c3ccccc32)CC1 [Example 33, 1-{1-[6-Chloro-1-(3,5-difluoro-benzyl)-1H-indole-3-carbonyl]-piperidin-4-yl}-1,3-dihydro-benzoimidazol-2-one] | 15

Further lines, results first:

Ki [nM] | Structure (SMILES)
35 | O=C(c1cn(C(=O)c2ccccc2F)c2cc(Cl)ccc12)N1CCC(n2c(=O)[nH]c3ccccc32)CC1 [Example 30, 1-{1-[6-Chloro-1-(2-fluoro-benzoyl)-1H-indole-3-carbonyl]-piperidin-4-yl}-1,3-dihydro-benzoimidazol-2-one]
7 | O=C(c1c[nH]c2cc(Cl)ccc12)N1CCC(n2c(=O)[nH]c3ccccc32)CC1 [Example 18, 1-[1-(6-Chloro-1H-indole-3-carbonyl)-piperidin-4-yl]-1,3-dihydro-benzoimidazol-2-one]
13 | Cc1c(C(=O)N2CCC(n3c(=O)n(C)c4ccccc43)CC2)c2ccccc2n1Cc1ccccc1 [Example 9, 1-{1-[(1-benzyl-2-methyl-1H-indol-3-yl)carbonyl]piperidin-4-yl}-3-methyl-1,3-dihydro-2H-benzimidazol-2-one]
20 | COc1ccc2c(C(=O)N3CCC(n4c(=O)[nH]c5ccccc54)CC3)cn(C(C)C)c2c1 [Example 11, 1-[1-(1-Isopropyl-6-methoxy-1H-indole-3-carbonyl)-piperidin-4-yl]-1,3-dihydro-benzoimidazol-2-one]
5 | O=C(Cn1cc(C(=O)N2CCC(n3c(=O)[nH]c4ccccc43)CC2)c2ccc(Cl)cc21)c1cc(F)ccc1F [Example 35, 1-(1-{6-Chloro-1-[2-(2,5-difluoro-phenyl)-2-oxo-ethyl]-1H-indole-3-carbonyl}-piperidin-4-yl)-1,3-dihydro-benzoimidazol-2-one]
15 | O=C(c1cn(C(=O)c2cc(F)cc(F)c2)c2cc(Cl)ccc12)N1CCC(n2c(=O)[nH]c3ccccc32)CC1 [Example 37, 1-{1-[6-Chloro-1-(3,5-difluoro-benzoyl)-1H-indole-3-carbonyl]-piperidin-4-yl}-1,3-dihydro-benzoimidazol-2-one]
5 | Cc1cc2c(C(=O)N3CCC(n4c(=O)[nH]c5ccccc54)CC3)cn(CC(=O)N(C)C)c2cc1Cl [Example 47, 2-{6-Chloro-5-methyl-3-[4-(2-oxo-2,3-dihydro-benzoimidazol-1-yl)-piperidine-1-carbonyl]-indol-1-yl}-N,N-dimethyl-acetamide]
12 | O=C(c1cn(C(=O)c2cccc(F)c2)c2cc(Cl)ccc12)N1CCC(n2c(=O)[nH]c3ccccc32)CC1 [Example 28, 1-{1-[6-Chloro-1-(3-fluoro-benzoyl)-1H-indole-3-carbonyl]-piperidin-4-yl}-1,3-dihydro-benzoimidazol-2-one]
2 | O=C(Cn1cc(C(=O)N2CCC(n3c(=O)[nH]c4ccccc43)CC2)c2ccc(Cl)cc21)c1ccccc1F [Example 38, 1-(1-{6-Chloro-1-[2-(2-fluoro-phenyl)-2-oxo-ethyl]-1H-indole-3-carbonyl}-piperidin-4-yl)-1,3-dihydro-benzoimidazol-2-one]
5 | O=C(c1c[nH]c2cc(Cl)c(F)cc12)N1CCC(n2c(=O)[nH]c3ccccc32)CC1 [Example 19, 1-[1-(6-Chloro-5-fluoro-1H-indole-3-carbonyl)-piperidin-4-yl]-1,3-dihydro-benzoimidazol-2-one]
2 | CN(C)C(=O)Cn1cc(C(=O)N2CCC(n3c(=O)[nH]c4ccccc43)CC2)c2ccc(Cl)cc21 [Example 46, 2-{6-Chloro-3-[4-(2-oxo-2,3-dihydro-benzoimidazol-1-yl)-piperidine-1-carbonyl]-indol-1-yl}-N,N-dimethyl-acetamide]
18 | O=C(Cn1cc(C(=O)N2CCC(n3c(=O)[nH]c4ccccc43)CC2)c2ccc(Cl)cc21)c1ccc(F)c(F)c1 [Example 39, 1-(1-{6-Chloro-1-[2-(3,4-difluoro-phenyl)-2-oxo-ethyl]-1H-indole-3-carbonyl}-piperidin-4-yl)-1,3-dihydro-benzoimidazol-2-one]
13 | O=C(c1cn(-c2cc(F)cc(F)c2)c2cc(Cl)ccc12)N1CCC(n2c(=O)[nH]c3ccccc32)CC1 [Example 40, 1-{1-[6-Chloro-1-(3,5-difluoro-phenyl)-1H-indole-3-carbonyl]-piperidin-4-yl}-1,3-dihydro-benzoimidazol-2-one]
25 | O=C(c1cn(C(=O)c2cccc(F)c2F)c2cc(Cl)ccc12)N1CCC(n2c(=O)[nH]c3ccccc32)CC1 [Example 31, 1-{1-[6-Chloro-1-(2,3-difluoro-benzoyl)-1H-indole-3-carbonyl]-piperidin-4-yl}-1,3-dihydro-benzoimidazol-2-one]
6 | Cc1c(C(=O)N2CCC(n3c(=O)[nH]c4ccccc43)CC2)c2ccccc2n1Cc1ccccc1 [Example 23, 1-[1-(1-Benzyl-2-methyl-1H-indole-3-carbonyl)-piperidin-4-yl]-1,3-dihydro-benzoimidazol-2-one]
3 | CN(C)C(=O)Cn1cc(C(=O)N2CCC(n3c(=O)[nH]c4ccccc43)CC2)c2cc(Cl)c(Cl)cc21 [Example 48, 2-{5,6-Dichloro-3-[4-(2-oxo-2,3-dihydro-benzoimidazol-1-yl)-piperidine-1-carbonyl]-indol-1-yl}-N,N-dimethyl-acetamide]
14 | O=C(c1cn(C(=O)N2CCCCC2)c2cc(Cl)ccc12)N1CCC(n2c(=O)[nH]c3ccccc32)CC1 [Example 41, 1-{1-[6-Chloro-1-(piperidine-1-carbonyl)-1H-indole-3-carbonyl]-piperidin-4-yl}-1,3-dihydro-benzoimidazol-2-one]
